What was measured:
[1] = tested on: Rattus norvegicus; test: Estrogenic toxicity in Wistar rat assessed as increase in uterine weight at 10 mg/kg, po for 4 days; assay type: organism-based; set-up: dose 10 mg/kg, route oral; settings: in vivo, 96 h
[2] = biological target: T1, Aromatase (Homo sapiens, UniProt P11511)
T1 sequence (P11511 whole entry): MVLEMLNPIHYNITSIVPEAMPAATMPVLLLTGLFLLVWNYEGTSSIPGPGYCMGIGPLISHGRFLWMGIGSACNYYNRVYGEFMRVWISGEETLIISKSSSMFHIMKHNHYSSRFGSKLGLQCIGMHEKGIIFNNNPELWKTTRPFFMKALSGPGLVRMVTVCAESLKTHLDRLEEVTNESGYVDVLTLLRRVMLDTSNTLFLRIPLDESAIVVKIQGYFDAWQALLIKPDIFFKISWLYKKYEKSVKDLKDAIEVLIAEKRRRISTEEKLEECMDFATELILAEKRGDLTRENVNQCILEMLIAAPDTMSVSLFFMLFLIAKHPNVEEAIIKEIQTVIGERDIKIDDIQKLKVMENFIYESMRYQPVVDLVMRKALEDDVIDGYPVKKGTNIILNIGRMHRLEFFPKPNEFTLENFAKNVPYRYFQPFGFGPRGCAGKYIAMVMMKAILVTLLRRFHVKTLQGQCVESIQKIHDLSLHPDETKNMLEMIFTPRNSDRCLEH
Description: Inhibition of aromatase in human JEG3 cells by scintillation spectrometry

[3] = biological target: T2, Steryl-sulfatase (Homo sapiens, UniProt P08842); test: Inhibition of steroid sulfatase in human JEG3 cells by scintillation spectrometry; assay type: cell-based, JEG-3
T2 sequence (P08842 whole entry): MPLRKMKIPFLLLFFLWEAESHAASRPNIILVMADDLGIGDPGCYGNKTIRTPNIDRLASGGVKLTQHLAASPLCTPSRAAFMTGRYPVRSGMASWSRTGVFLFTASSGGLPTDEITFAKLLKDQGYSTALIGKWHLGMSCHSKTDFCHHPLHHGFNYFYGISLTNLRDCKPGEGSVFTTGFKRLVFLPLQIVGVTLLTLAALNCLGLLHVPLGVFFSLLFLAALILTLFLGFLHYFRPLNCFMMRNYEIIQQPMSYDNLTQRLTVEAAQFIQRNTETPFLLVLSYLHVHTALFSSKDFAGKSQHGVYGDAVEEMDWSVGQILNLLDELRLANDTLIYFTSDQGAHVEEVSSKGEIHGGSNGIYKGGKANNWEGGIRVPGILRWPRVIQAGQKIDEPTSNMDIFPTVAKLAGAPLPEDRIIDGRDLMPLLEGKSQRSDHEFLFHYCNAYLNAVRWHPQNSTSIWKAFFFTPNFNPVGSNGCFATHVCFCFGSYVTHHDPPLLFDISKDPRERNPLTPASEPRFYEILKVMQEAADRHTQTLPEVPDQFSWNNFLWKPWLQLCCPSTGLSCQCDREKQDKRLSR

[4] = biological target: T1, Aromatase; test: Inhibition of aromatase in human JEG3 cells at 0.1 uM by scintillation spectrometry; assay type: cell-based; settings: JEG-3, human
[5] = biological target: T1, Aromatase; test: Inhibition of aromatase in human JEG3 cells at 1 uM by scintillation spectrometry; assay type: cell-based, JEG-3; settings: for inhibition (INH): human, jeg-3, 1 µM
[6] = tested on: Rattus norvegicus; test: Inhibition of aromatase in Wistar rat assessed as inhibition of PMSG-induced plasma E2 level at 0.1 mg/kg, po administered after 3 days of PMSG challenge by radioimmunoassay; assay type: functional
[7] = tested on: Rattus norvegicus; test: Inhibition of steroid sulfatase in PMSG-pretreated Wistar rat liver at 0.1 mg/kg, po administered after 3 days of PMSG challenge by liquid scintillation spectrometry
[8] = tested on: Rattus norvegicus; test: Inhibition of aromatase in PMSG-pretreated Wistar rat plasma at 0.1 mg/kg, po administered after 3 days of PMSG challenge by radioimmunoassay; assay type: functional
[9] = tested on: Rattus norvegicus; test: Inhibition of steroid sulfatase in PMSG-pretreated Wistar rat at 1 mg/kg, po administered after 3 days of PMSG challenge by liquid scintillation spectrometry; assay type: functional
[10] = tested on: Rattus norvegicus; test: Inhibition of aromatase in Wistar rat assessed as inhibition of PMSG-induced plasma E2 level at 1 mg/kg, po administered after 3 days of PMSG challenge by radioimmunoassay; assay type: functional
[11] = tested on: Rattus norvegicus; test: Inhibition of aromatase in PMSG-pretreated Wistar rat at 1 mg/kg, po administered after 3 days of PMSG challenge by radioimmunoassay
[12] = biological target: T3, Steryl-sulfatase (Homo sapiens) (UniProt P08842); test: Inhibition of steroid sulfatase in human JEG3 cells at 10 uM by scintillation spectrometry; assay type: cell-based; settings: JEG-3
T3 sequence (whole entry): T2 sequence (P08842 whole entry)

[13] = biological target: T1, Aromatase; test: Inhibition of aromatase in human JEG3 cells at 10 uM by scintillation spectrometry; assay type: cell-based; settings: JEG-3, human

| SMILES | IC50 [2] | IC50 [3] | further results |
| --- | --- | --- | --- |
| N#Cc1ccc(N(Cc2ccc(OS(N)(=O)=O)c(Br)c2)n2cnnc2)cc1 |  |  | Activity [1]: Non-toxic |
| NS(=O)(=O)Oc1ccc(-c2cccc(Cn3cncn3)c2)cc1Cl | 70 nM | 160 nM |  |
| N#Cc1cc(Cn2cncn2)cc(-c2ccc(OS(N)(=O)=O)c(Cl)c2)c1 | 80 nM | 6330 nM |  |
| Oc1ccc(-c2cccc(Cn3cncn3)c2)cc1 |  |  | inhibition at 0.1 µM [4]: 24.6%; inhibition (INH) [5]: 79% |
| N#Cc1ccc(Cn2cncn2)cc1-c1ccc(Cl)c(OS(N)(=O)=O)c1 | 0.35 nM | > 10000 nM |  |
| CC(C)(C#N)c1cc(Cn2cncn2)cc(-c2ccc(OS(N)(=O)=O)cc2)c1 | 17.5 nM | > 10000 nM |  |
| N#Cc1cc(Cn2cncn2)ccc1-c1ccc(O)c(Cl)c1 | 380 nM |  |  |
| N#Cc1ccc(-c2cc(C#N)cc(Cn3cncn3)c2)cc1 | 52 nM |  |  |
| N#Cc1cc(Cn2cncn2)ccc1-c1ccccc1 | 4.6 nM |  |  |
| N#Cc1cc(Cn2cncn2)cc(-c2ccc(OS(N)(=O)=O)cc2)c1 | 280 nM | > 10000 nM |  |
| N#Cc1ccc(C(c2ccc(C#N)cc2)n2cncn2)cc1 [LETROZOLE] |  |  | Activity [6]: 49 pg/mL; inhibition in vivo at 0.1 mg/kg [7]: 0%; inhibition in vivo at 0.1 mg/kg [8]: 85% |
| N#Cc1ccc(Cn2cncn2)cc1-c1ccc(Cl)c(O)c1 | 0.22 nM |  |  |
| N#Cc1ccc(Cn2cncn2)cc1-c1ccc(O)cc1 | 0.2 nM |  | inhibition in vivo at 1 mg/kg [9]: 10%; plasma estradiol (E2) level [10]: 94 pg/mL; inhibition in vivo at 1 mg/kg [11]: 72% |
| N#Cc1cc(Cn2cncn2)ccc1-c1ccc(OS(N)(=O)=O)c(Cl)c1 | 571 nM | 29 nM |  |
| N#Cc1cc(Cn2cncn2)cc(-c2ccc(O)cc2)c1 | 112 nM |  |  |
| CC(C)(C#N)c1cc(Cn2cncn2)cc(-c2ccc(OS(N)(=O)=O)c(Cl)c2)c1 | 0.3 nM |  | inhibition [12]: 68.2% |
| N#Cc1cc(Cn2cncn2)cc(-c2ccc(O)c(Cl)c2)c1 | 24 nM |  |  |
| N#Cc1ccc(-c2cccc(OS(N)(=O)=O)c2)cc1Cn1cncn1 |  | > 10000 nM | inhibition at 1 µM ([5]; JEG-3, human): 63.4% |
| N#Cc1ccc(Cn2cncn2)cc1-c1ccc(OS(N)(=O)=O)c(Cl)c1 |  | 5.5 nM | Activity [1]: Non-toxic; inhibition in vivo at 1 mg/kg [9]: 92%; plasma estradiol (E2) level [10]: 132 pg/mL; inhibition in vivo at 1 mg/kg [11]: 60% |
| CC(C)(C#N)c1cc(Cn2cncn2)cc(-c2ccc(O)c(Cl)c2)c1 | 0.1 nM |  |  |
| N#Cc1ccc(-c2cccc(O)c2)cc1Cn1cncn1 | 14.4 nM |  |  |
| N#Cc1ccc(-c2ccccc2)cc1Cn1cncn1 |  |  | inhibition at 0.1 µM [4]: 23.9%; inhibition (INH) [5]: 68.8% |
| c1ccc(-c2cccc(Cn3cncn3)c2)cc1 | 210 nM |  |  |

| SMILES | IC50 [2] | IC50 [3] | further results |
| --- | --- | --- | --- |
| NS(=O)(=O)Oc1ccc(-c2cccc(Cn3cncn3)c2)cc1 | 275 nM | 5500 nM |  |
| N#Cc1ccc(-c2ccc(OS(N)(=O)=O)cc2)c(C#N)c1 |  | 16.3 nM | inhibition at 10 µM [13]: 47% |
| N#Cc1ccc(Cn2cncn2)c(-c2ccc(OS(N)(=O)=O)c(Cl)c2)c1 | 1.9 nM | > 10000 nM |  |
| N#Cc1ccc(-c2ccc(OS(N)(=O)=O)c(Cl)c2)cc1Cn1cncn1 | 146 nM | 32.6 nM |  |
| N#Cc1ccc(Cn2cncn2)cc1-c1ccc(O)c(Cl)c1 |  |  | inhibition in vivo at 1 mg/kg [9]: 5%; plasma estradiol (E2) level [10]: 297 pg/mL; inhibition in vivo at 1 mg/kg [11]: 11% |
| N#Cc1cc(Cn2cncn2)cc(-c2ccc(F)cc2)c1 | 19 nM |  |  |
| N#Cc1ccc(-c2ccc(O)c(Cl)c2)cc1Cn1cncn1 | 74 nM |  |  |
| N#Cc1ccc(Cn2cncn2)cc1-c1ccccc1 | 0.2 nM |  |  |
| N#Cc1ccc(-c2ccc(OS(N)(=O)=O)cc2)cc1Cn1cncn1 | 176 nM | 140 nM |  |
| N#Cc1ccc(Cn2cncn2)c(-c2ccccc2)c1 | 1.7 nM |  |  |
| N#Cc1ccc(Cn2cncn2)cc1-c1cccc(Cl)c1 | 0.22 nM |  |  |
| N#Cc1ccc(Cn2cncn2)cc1-c1ccc(OS(N)(=O)=O)cc1 | 2 nM | 35 nM | inhibition in vivo at 1 mg/kg [9]: 77%; plasma estradiol (E2) level [10]: 124 pg/mL; inhibition in vivo at 1 mg/kg [11]: 63% |
| N#Cc1cc(Cn2cncn2)cc(-c2ccccc2)c1 | 29.3 nM |  |  |
| CCCN1C(=O)CC2C3CCc4cc(OS(N)(=O)=O)ccc4C3CC[C@]2(C)C1=O (stereo partly specified) |  |  | inhibition in vivo at 1 mg/kg [9]: 99% |
| CN(C)S(=O)(=O)Oc1ccc(-c2cc(Cn3cncn3)ccc2C#N)cc1Cl | 2.4 nM | > 10000 nM |  |
| CN(C)S(=O)(=O)Oc1ccc(-c2cc(Cn3cncn3)ccc2C#N)cc1 | 0.5 nM | > 10000 nM |  |
| N#Cc1cc(Cn2cncn2)ccc1-c1ccc(OS(N)(=O)=O)cc1 | 284 nM | 28.6 nM |  |
| N#Cc1ccc(Cn2cncn2)c(-c2ccc(O)c(Cl)c2)c1 | 0.8 nM |  |  |
| N#Cc1cc(Cn2cncn2)ccc1-c1ccc(O)cc1 | 920 nM |  |  |
| CC(C)(C#N)c1cc(Cn2cncn2)cc(-c2ccccc2)c1 | 0.5 nM |  |  |
| CC(C)(C#N)c1cc(Cn2cncn2)cc(-c2ccc(O)cc2)c1 | 6 nM |  |  |
| N#Cc1ccc(-c2ccc(O)cc2)cc1Cn1cncn1 |  |  | inhibition at 0.1 µM [4]: 35.1%; inhibition (INH) [5]: 76.4% |
| Oc1ccc(-c2cccc(Cn3cncn3)c2)cc1Cl |  |  | inhibition at 0.1 µM [4]: 36.6%; inhibition (INH) [5]: 85.3% |

— ChEMBL document CHEMBL1157574 (J Med Chem, 2010)
